{
  "source": "patent US20210046002A1",
  "about": "“AMELIORATION OF AUTOIMMUNE UVEITIS THROUGH BLOCKADE OF CSF1R” (Massachusetts Eye and Ear Infirmary, priority 2018, published 2021)",
  "key": {"[1]": {"test_system": "circulating systemic immune cells", "details": "previous studies [31, 32]; cited from earlier work"}, "[2]": {"test_system": "lymph node and spleen cells", "assay": "Lymphocyte proliferation assay (modified MTT) of lymph node and spleen cells", "type": "cell-based, C57BL/6 mice", "details": "IRBP-immunized animals, lymph nodes and spleens, day 14 and 21", "description": "The draining LN and spleens were collected and the cells were suspended at 2×10^5 per 200 μL medium in 96-well flat-bottom plates. Triplicated cells were cultured in the presence of 10 μg/mL IRBP-p, 1 μg/mL Concanavalin A (Con A; Sigma-Aldrich), or medium alone. After incubation for three days, 100 μl of supernatant in the culture medium was collected. Cell proliferation during the last 4 hours of 72 hours cultures was measured by modified MTT assay using Cell Counting Kit-8 (Sigma-Aldrich)."}, "[3]": {"test_system": "retinal microglia", "assay": "Retinal microglia depletion by chow containing CSF1R inhibitor", "type": "in vivo", "details": "inhibitor-treated mice", "excerpt": "The images of whole mount retinas were taken by a confocal microscopy (SP5 or SP8; Leica, Buffalo Grove, Ill., USA) or an epifluorescent microscopy (Axio Observer Z1; Carl Zeiss, Bayern, Germany). For microglial cell number counting, microglial cell bodies were manually counted based on the z-stack images. For microglial density evaluation, maximum intensity z-stack images were created and the images were processed with the smooth, the make binary, and the watershed tools. The area of particles was then calculated using the analyze particles tool, setting the size range to 5-1000. Amira 5 software (FEI, Hillsboro, Oreg., USA) was used to make 3D-reconstruction images.\nMicroglia depletion was performed using Cx3cr1^CreER×B6-iDTR (TG) mice or chow containing a small molecule CSFR1 inhibitor (Plexxikon Inc, Berkely, Calif., USA). To generate TG mice, Cx3cr1^CreER mice, which express Cre-ER fusion protein from endogenous CX3CR1 promoter enhance elements, were crossed with B6-iDTR mice, which contain a flox-STOP-flox diphtheria toxin receptor (DTR) in the ROSA26 locus. In this TG mice system, the Cre recombinase activation under the control of the Cx3cr1 promoter can be induced by tamoxifen, which leads to the surface expression of DTR on CX3CR1-expressing cells. […]"}, "[4]": {"assay": "Behavior and health observation on supplemented diet", "type": "in vivo, mice", "details": "chow containing 1200 p.p.m", "description": "Microglia depletion was performed using Cx3cr1^CreER×B6-iDTR (TG) mice or chow containing a small molecule CSFR1 inhibitor (Plexxikon Inc, Berkely, Calif., USA). To generate TG mice, Cx3cr1^CreER mice, which express Cre-ER fusion protein from endogenous CX3CR1 promoter enhance elements, were crossed with B6-iDTR mice, which contain a flox-STOP-flox diphtheria toxin receptor (DTR) in the ROSA26 locus. In this TG mice system, the Cre recombinase activation under the control of the Cx3cr1 promoter can be induced by tamoxifen, which leads to the surface expression of DTR on CX3CR1-expressing cells. The activation of Cre recombinase was induced by 5 consecutive days of tamoxifen administration via eye drops (10 μl/drop of 5 mg/ml in corn oil) three times a day at 6 weeks old. Then diphtheria toxin (DTX) (Sigma-Aldrich) was administered into the anterior chamber (a.c.) (25 ng in 1 μl of saline) to deplete CX3CR1-expressing. The control mice were given saline (a.c.). For microglia depletion using a small molecule CSFR1 inhibitor, mice were fed the control chow (AIN-76) or the chow containing 1200 p.p.m of the CSF1R inhibitor PLX 5622 one week prior to RD creation."}, "[5]": {"test_system": "ICAM-1", "assay": "Western blot of retinal ICAM-1", "type": "in vivo, mice", "details": "EAU day 10; P<0.01", "description": "(§1) Whole retinas were homogenized with a hand homogenizer and briefly sonicated in M-PER® Mammalian Protein Extract Reagent containing Halt Phosphatase Inhibitor Cocktail (both Thermo Scientific), and then ultracentifuged for 15 min at 17,000 g to collect soluble proteins as supernatants. 20 μg of the samples were electrophoresed through 4-15% polyacrylamide gels (Bio-Rad, Hercules, Calif., USA), and transferred onto PVDF membranes. After blocking with 5% nonfat dried milk, the membranes were incubated overnight with a primary antibody at 4° C. The membranes were then incubated for 1 hour at room temperature with a HRP-labeled secondary antibody. The following antibodies were used: rabbit anti-ICAM1 (179707, abcam), rabbit anti-VCAM1 (134047, abcam), and rabbit anti-β-actin (4970; Cell Signaling Technology). Immunoreactive bands were visualized by ECL. The images were taken by ChemiDoc MP (Bio-Rad) and analyzed using Image Lab 4.6 (Bio-Rad)."}, "[6]": {"test_system": "VCAM-1", "assay": "Western blot of retinal VCAM-1", "type": "in vivo, mice", "details": "EAU day 14", "description": "as §1"}, "[7]": {"test_system": "LN cells and SP cells", "assay": "Flow cytometric analysis of lymph nodes and spleens", "type": "in vivo, mice", "excerpt": "Cervical, axillary, and inguinal lymph nodes (LNs) were harvested from naive mice and EAU mice fed with a small molecule CSFR1 inhibitor or control diet. Single cell suspensions (1×10^6 cells/sample) were blocked with anti-mouse CD16/32 mAb (eBioscience, San Diego, Calif.) and stained with cell surface antibodies. Dead cells were stained with LIVE/DEAD™ fixable dead cell stain kit (blue or violet) (ThermoFisher). The following anti-mouse antibodies were used for staining: CD4-FITC (clone: GK1.5), CD25-PE (PC61.5), Foxp3-PE-Cy7 (FJK-6s), CD11c-FITC (N418), CD11b-PE (M1/70), CD45-APC (30-F11), IFN-γ-PE (XMG1.2), and IL-17A-APC (eBio17B7) (All purchased from eBioscience). CD3-Pacific blue (17A2) was purchase from BioLegend (San Diego, Calif.). For CD45/CD11b/CD11c detection, the cells were subjected for analysis without fixation. For regulatory T cell (CD3/CD4/CD25/Foxp3) staining, after staining with the cell surface markers, the cells were fixed and permeabilized with the Foxp3 staining buffer kit (eBioscience) and stained with Foxp3-PE-Cy7. For Th1 and Th17 detection (CD3/CD4/IFN-γ/IL-17), single cell suspensions were stimulated for 4 hours with 50 ng/mL phorbal myristate acetate (PMA) and 500 ng/ml ionomysin in culture media (10% FBS, RPMI1640, penicillin, streptomycin, β-mercaptoethanol) in the presence of GolgiPlug™ (BD Biosciences). The cells were stained with CD3-PB, CD4-FITC, and Live/Dead blue then fixed and permeabilized using an intracellular fixation and permeabilization buffer set (eBioscience). The cells were next stained with IFN-γ-PE and IL-17-APC. Flow cytometric data were acquired on a LSR II (BD Biosciences). Acquired data was analyzed using FlowJo 10.1 ( )."}, "[8]": {"assay": "Lymph node and spleen weight in EAU", "type": "in vivo, C57BL/6 mice", "details": "day 21"}, "[9]": {"test_system": "EAU", "assay": "Active immunization EAU, clinical and histopathological score", "type": "in vivo, C57BL/6 mice"}, "[10]": {"test_system": "IRBP-p", "assay": "Delayed hypersensitivity (ear swelling) against IRBP-p", "type": "in vivo, C57BL/6 mice", "details": "IRBP-immunized animals, day 21", "description": "Ag-specific delayed hypersensitivity (DH) was measure as previously described. On day 19 after immunization, mice were injected intradermally with 10 μg/10 μl of IRBP-p suspended in PBS into the pinna of one ear. Ear swelling was measured after 24 and 48 h using a micrometer (Mitutoyo, Tokyo, Japan). DH was measured as the difference in ear thickness before and after challenge. Results were expressed as: specific ear swelling=(24-h measurement−0-h measurement) for test ear−(24-h measurement−0-h measurement) for control ear."}, "[11]": {"test_system": "adherent retinal leukocytes", "assay": "Lectin labeling of adherent retinal leukocytes", "type": "in vivo, mice", "details": "EAU day 10", "description": "The retinal vasculature and adherent leukocytes were imaged by perfusion labeling with fluorescein-isothiocyanate (FITC)-conjugated concanavalin A lectin (conA; Vector Laboratories, Burlingame, Calif.), as described previously with modifications. Briefly, after deep anesthesia, the chest cavity was opened and a 27-gauge cannula was introduced into the left ventricle. The mice were perfused through the left ventricle first using 5 ml of PBS, followed by fixation with 1% paraformaldehyde (5 ml), FITC-conjugated conA (20 μg/ml in PBS, 5 mL), and 5 ml of PBS. The eyes were then fixed in 4% PFA for 15 mins and the retinas were flatmounted. The total number of conA stained adherent leukocytes in the major retinal vessels (venules, arterioles, and collecting vessels) were counted under the direct observation with an epifluorescent microscopy (Axio Observer Z1; Carl Zeiss, Bayern, Germany)."}, "[12]": {"test_system": "EAU", "assay": "Adoptive transfer EAU", "type": "in vivo, mice", "description": "Adoptive transfer EAU was induced as previously described with brief modification. Briefly, donor mice were immunized as described above and the spleens and draining lymph nodes (LNs) were collected on day 14 post-immunization. Lymphocytes from spleens and draining LNs were culture in the presence of 10 μg/ml IRBP-p and 10 ng/ml IL-23 (R&D systems, Minneapolis, Minn.) for 72 hours in RPMI 1640 supplemented with 10% FBS (Gibco), 2 mM glutamine (Gibco), and 100 U/ml penicillin and 100 μg/ml streptomycin. The non-adherent cells in the entire suspension were transferred to new dishes on day one and two of culture. After 3 days, the activated lymphocytes were purified by gradient centrifugation on Histopaque 1083 and counted. The cells were injected i.p. in 0.2 ml of PBS into […] (5×10^7 cells/mouse). Fundus were observed using Micron IV (Phoenix, Pleasanton, Calif.) and clinical score was graded on a scale between 0-4 in half-point increments as described previously. For histological assessment, enucleated eyes were fixed in a buffer of 70% methanol and 30% acetic acid. The fixed tissues were embedded in paraffin and processed. Sections of 5 μm were cut and stained with H&E. The severity of EAU in each eye was scored on a scale between 0-4 in half-point increments, according to a semiquantitative system described previously."}, "[13]": {"test_system": "EAU", "assay": "EAU in Cx3cr1CreER x B6-iDTR mice given tamoxifen alone", "type": "in vivo", "details": "day 21; for clinical EAU score: tamoxifen alone, systemically via i.p. injection"}},
  "note": "“Also recorded” adds a separate entry of the source.",
  "data": [
    {"compound": "COc1ncc(F)cc1CNc1ccc(Cc2c[nH]c3ncc(C)cc23)c(F)n1", "note": "[a small molecule CSFR1 inhibitor]", "values": [
      {"measurement": "effect on circulating systemic immune cells", "setting": "[1]", "value": "minimal effect"},
      {"measurement": "lymphocyte proliferation", "setting": "[2]", "value": "did not affect"},
      {"measurement": "degree of microglia depletion", "setting": "[3]", "value": 100, "unit": "%"},
      {"measurement": "behavioral or health problems", "setting": "[4]", "value": "No obvious behavioral or health problems"},
      {"measurement": "retinal ICAM-1 protein expression vs naïve retina", "setting": "[5]", "value": "significantly higher"},
      {"measurement": "retinal VCAM-1 expression", "setting": "[6]", "value": "unaffected"},
      {"measurement": "frequency of CD3+CD4+ T cells positive for IFN-γ+ or IL-17+", "setting": "[7]; LNs and spleens, day 14", "value": "does not suppress; also recorded: did not significantly change"},
      {"measurement": "frequency of regulatory T cells (CD4+CD25+Foxp3+)", "setting": "[7]; LNs and spleens, day 14", "value": "did not increase"},
      {"measurement": "CD11c+CD11b+ cells", "setting": "[7]; both LNs and splenic cells, day 14 of EAU, vs control-fed", "value": "suppresses; also recorded: decreased"},
      {"measurement": "lymph node (LN) weight", "setting": "[8]", "value": "does not change; also recorded: neither parameter was affected"},
      {"measurement": "spleen weight", "setting": "[8]", "value": "does not change; also recorded: neither parameter was affected"},
      {"measurement": "clinical EAU score (development of EAU)", "setting": "[9]; diet 1200 ppm started day -7, through day 21, p<0.001", "value": "suppresses EAU; also recorded: completely suppressed"},
      {"measurement": "clinical EAU score", "setting": "[9]; diet started day 0, until 28 days after EAU induction", "value": "effectively suppressed"},
      {"measurement": "clinical EAU score", "setting": "[9]; diet started day 7", "value": "partially suppressed"},
      {"measurement": "severity of EAU (clinical score)", "setting": "[9]; diet started day 14", "value": "comparable to that of control mice"},
      {"measurement": "animals developing EAU", "setting": "[9]; diet started day -7, by day 28, mild EAU, n=7", "value": "Only one animal"},
      {"measurement": "histological score", "setting": "[9]; diet started day -7, day 21, p<0.01", "value": "suppressed EAU induction"},
      {"measurement": "delayed hypersensitivity (DH) response, ear swelling", "setting": "[10]", "value": "did not affect"},
      {"measurement": "levels of adherent cells vs naïve mice", "setting": "[11]", "value": "similar"},
      {"measurement": "number of adherent cells vs control EAU mice", "setting": "[11]", "value": "significantly fewer"},
      {"measurement": "severity of EAU in recipients (uveitogenicity of donor lymphocytes)", "setting": "[12]; inhibitor given to donor mice 7 days prior to EAU induction, recipients on regular diet", "value": "did not affect the severity of EAU; also recorded: does not significantly suppress"},
      {"measurement": "EAU response (clinical and histopathological score)", "setting": "[12]; inhibitor given to recipient mice 7 days prior to cell transfer", "value": "suppressed; also recorded: suppresses EAU"}
    ]},
    {"compound": "CC/C(=C(\\c1ccccc1)c1ccc(OCCN(C)C)cc1)c1ccccc1", "note": "[tamoxifen]", "values": [
      {"measurement": "clinical EAU score", "setting": "[13]", "value": "significantly suppressed"},
      {"measurement": "clinical EAU score", "setting": "[13]; listed as Tamoxifen", "value": "suppresses EAU"},
      {"measurement": "EAU severity (clinical EAU score)", "setting": "[13]; tamoxifen topical via eye drops", "value": "did not significantly affect"}
    ]}
  ]
}
